Data on 6 molecules can be found in PubChem BioAssay (NCI).

Assay in all cases: DTP human tumour cell line panel, 48 h
The test system of experiment [1] is HS 578T breast.
For experiment [2], the system named is SN12C renal.
Experiment [3] relates to MDA-MB-231 breast.
For experiment [4], the system named is SNB-19 CNS.
Experiment [5] has as its system BT-549 breast.
Experiment [6] concerns A549 NSCLC.
Experiment [7] concerns NCI-H522 lung.
In experiment [8] the test system is K-562 leukemia.
The test system of experiment [9] is MCF7 breast.
The subject of experiment [10] is TK-10 renal.

Where “and” joins values, the source holds several entries; their conditions need not be identical. Equal values may be shown once.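 How tested: cells in 96-well plates exposed to compound for 48 hours at five concentrations. The concentration for 50% growth inhibition is given as GI50. TGI denotes the concentration required for complete inhibition of growth.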

For orientation: GI50 means the concentration giving 50% growth inhibition. By TGI is commonly meant the concentration at which net growth stops.

With `C=C(C)[C@@H]1CC[C@]2(COC3CCCCO3)CC[C@]3(C)[C@H](CC[C@@H]4[C@@]5(C)C=C(C=O)C(=O)C(C)(C)[C@@H]5CC[C@]43C)[C@@H]12` (stereo not given in full), the GI50 was 1.39 µM in experiment [1]; 2.06 µM in experiment [2]; 1.81 µM in experiment [3]; 1.35 µM in [4]; 1.42 µM in experiment [5]; 1.56 µM in [6]. In addition, the GI50 in experiment [7] was 1.38 µM; in experiment [8], 1.64 µM; in experiment [9] it was 1.52 µM; in experiment [10], 1.57 µM. Moreover, the TGI in experiment [1] stood at 3.77 µM; in experiment [2], 5.57 µM; in [3], 3.82 µM; in experiment [4] it was 2.89 µM; in experiment [5], 2.78 µM; in [6] it was 3.15 µM. The TGI stood at 2.86 µM in experiment [7], 5.98 µM in [8], 3.43 µM in experiment [9] and 2.96 µM in experiment [10].

In the case of `COc1ccc(-c2cc(-c3cc(OC)c(OC)c(OC)c3)c(C#N)c(N3CCOCC3)n2)cc1O`, the GI50 in experiment [1] was 2.45 µM; in experiment [2], 4.69 µM; in [3], 2.41 µM; in [4], 5.33 µM; in experiment [5] it was 19.9 µM; in experiment [6] it was 4.71 µM. In addition, the GI50 in experiment [7] was 5.14 µM; in experiment [8] it was 2.47 µM; in [9], 3.2 µM; in [10] it was > 59.8 µM. Also, the total growth inhibition concentration (TGI) in experiment [1] is > 28.3 µM; in experiment [2] it was > 100 µM; in experiment [3] it was > 93.3 µM; in experiment [4], > 100 µM; in [5], > 100 µM; in experiment [6], > 100 µM. Further, the TGI in experiment [7] was > 53.6 µM; in [8], > 24.1 µM; in experiment [9], > 100 µM; in experiment [10] it was > 100 µM.

For `O=C(O)c1ccc2c(c1)nc(Nc1cccc(Cl)c1)c1ccncc12`, the GI50 in experiment [1] is 0.435 µM and 1.17 µM; in experiment [2] it was 3.88 µM and 3.71 µM; in experiment [3], 4.18 µM and 3.57 µM; in [4] it was 3.04 µM and 3.46 µM; in experiment [5], 2.48 µM and 2.29 µM; in [6], 7.23 µM and 6.64 µM. The GI50 in experiment [7] was 1.98 µM and 1.39 µM; in experiment [8] it was 3.06 µM and 4.09 µM; in [9], 2.22 µM and 2.57 µM; in experiment [10], 3.67 µM and 2.13 µM. Moreover, the TGI was 3.88 µM and 6.21 µM in experiment [1]; > 100 µM in experiment [2]; 34.2 µM and > 10 µM in experiment [3]; > 100 µM in [4]; 10.9 µM and 8.33 µM in experiment [5]; 27.4 µM and > 10 µM in [6]. Also, the TGI is 6.42 µM and 4.51 µM in experiment [7]; 15.7 µM and > 10 µM in [8]; > 100 µM in [9]; 25.2 µM and > 10 µM in experiment [10].

As for `CN(C[C@@H]1COCCO1)S(=O)(=O)Nc1ccc2ccc3ncc(-c4cnn(C)c4)cc3c(=O)c2c1`, the GI50 in experiment [1] was 1.35 µM; in experiment [2], 3.53 µM; in experiment [3], 7.76 µM; in [4], 12.5 µM; in experiment [5], 2.01 µM; in [6] it was 6.64 µM. In addition, the GI50 was 3.71 µM in [7], 6.57 µM in experiment [8], 12.8 µM in experiment [9] and 2.64 µM in [10]. The TGI was 6.16 µM in experiment [1]; > 100 µM in experiment [2]; > 100 µM in experiment [3]; > 100 µM in experiment [4]; > 100 µM in experiment [5]; > 100 µM in experiment [6]. Also, the concentration for total growth inhibition (TGI) in experiment [7] was > 31 µM; in [8], > 100 µM; in experiment [9] it was > 100 µM; in experiment [10], > 100 µM.

Regarding `C[C@H]1C(Oc2ccc(O)cc2)OC2OC3(C)CCC4[C@H](C)CCC1C24OO3` (stereo not given in full), the GI50 is 11.9 µM in [1]; 11.7 µM in [2]; 15.8 µM in experiment [3]; 17.1 µM in experiment [4]; 8.34 µM in [5]; 12.2 µM in experiment [6]. Further, the GI50 is 11 µM in experiment [7], > 42 µM in experiment [8], 12.6 µM in experiment [9] and 15.9 µM in experiment [10]. The TGI is 32.7 µM in [1]; 26 µM in experiment [2]; 30.9 µM in experiment [3]; 36.5 µM in [4]; 23.7 µM in experiment [5]; 30.6 µM in experiment [6]. Also, the TGI in experiment [7] was 25.3 µM; in experiment [8], > 100 µM; in experiment [9], 32.5 µM; in [10] it was 37.8 µM.

As to `O=[N+]([O-])c1ccc2ncccc2c1Cl`, the GI50 in [1] was 7.69 µM; in [2], 4.3 µM; in [3], 3.46 µM; in experiment [4] it was 4.2 µM; in [5], 3.29 µM; in experiment [6], 3.29 µM. Further, the GI50 is 2.74 µM in [7], 0.382 µM in experiment [8], 3.55 µM in [9] and 6.38 µM in [10]. Further, the TGI in experiment [1] is > 100 µM; in experiment [2], > 100 µM; in [3], 11.9 µM; in [4], 23.4 µM; in [5], 9.57 µM; in experiment [6] it was > 100 µM. Moreover, the TGI in [7] was 6.59 µM; in [8], 27.1 µM; in [9], 12.9 µM; in [10], 46.1 µM.
